Ends that are not written are not given here.
Key:
[1] = test system: MB49 bladder carcinoma cell line; assay: Peptide uptake by MB49 bladder carcinoma cells; type: cell-based, murine
Description: An MB49 bladder carcinoma cell line was maintained in full Dulbecco's modified Eagle's medium (DMEM) with antibiotics and L-glutamine. Cells were seeded on 24 well plates for at least 24 hours to allow the cells to grow to confluence; each sample was done in triplicate. Samples were then incubated with one of free CGKRK (SEQ ID NO:1) and KAREC (SEQ ID NO:2), micelles of these two peptides, fluorescence TAT peptide (positive control), and PBS (negative control). After the incubation, all wells were washed with PBS three times to remove any free fluorescence molecules. Cells were detached from the wells with trypsin at 37° C. for 5 minutes. 0.3% Triton X-100 in PBS was added to the cells, and after 30 minutes of incubation, the solutions were centrifugated in an Eppendorf microcentrifuge at 15,000 rpm. The fluorescence intensity of the supernatant was measured using a fluorescence plate reader. For confocal imaging, cells were grown on glass chamber slides. Following the incubation experiment, cells were imaged with a Nikon MR Confocal STORM super-resolution microscope.

[2] = Peptide binding to heparin-coated wells; settings: FIG. 5B
Description: (§1) The peptides CGKRK (SEQ ID NO:1) and KAREC (SEQ ID NO:2) were diluted two-fold in PBS at different concentrations and added to collagen- and heparin-coated wells preblocked with 5% bovine serum albumin. The plates were incubated at room temperature for 1 hour, washed 4 times with 200 μL PBS, and scanned at […] of 485 and 515 nm using a SpectraMax M5 fluorescence plate reader. The PBS background was subtracted from the data points, and the data were plotted with Prism.

collagen type I = collagen type I (Homo sapiens, UniProt P02452+P08123); assay: Peptide binding to collagen-coated wells; settings: FIG. 5C
Description: as §1

bladder urothelium = assay: Intravesical peptide binding to the mouse bladder with or without injury (in situ imaging, histology); type: in vivo, mice; settings: for Binding in the bladder, in situ images: 15 minutes incubation; for Histological analysis of binding, entire bladder: 2× magnification
Description: Eight-to twelve-week-old female mice were anesthetized with isoflurane using a vaporizer machine at a flow rate of 1-3 L/min. The mice were placed on their backs and their urethra openings were pulled forward while squeezing the bladder to express urine. A lubricated 24 G Angiocath catheter with no needle was inserted via the urethra into the bladder cavity to wash the bladder once with […] PBS. To imitate a bladder injury subsequent to bladder cancer surgery, in which the urothelium is damaged after the removal of cancer tissues, the catheter tip was inserted completely and five circular motions were made in the apical part of the bladder. A 1 mL syringe with 100 μL of a CGKRK peptide (SEQ ID NO:1) solution (0.3 mg/mL in 80% PBS/20% DMSO) was attached to the catheter, and approximately 50 μL of the solution was injected into the bladder until the bladder was completely distended, as determined by abdominal palpitation. The catheter with attached syringe was left in the bladder for 15 minutes. After incubation, the peptide was removed via negative pressure, and the bladder was washed 5 times with PBS, with complete filling of the bladder each time. A Dino-Lite AM4113T-GRFBY camera equipped with 480- and 570-nm excitation filters and 510- and 610-nm long pass emission filters was used to take images of the bladder in situ. The abdominal cavity was opened by incision, and the bladder was imaged at 20 to 40 times magnification. The images were acquired at 1280×1024 resolution.
Freshly removed bladders were washed in PBS and snap frozen in liquid nitrogen. The tissue was embedded in optical cutting temperature (OCT) media and cryosectioned in consecutive 7-μm steps so that alternating sections were mounted on slides for fluorescence imaging and hematoxylin-eosin (H&E) staining, respectively. The tissues on each slide were fixed in a 10% buffered formalin solution, mounted with Vectashield™ antifade mounting medium with DAPI (for fluorescence imaging) or Permount™ medium (for H&E staining), and covered with a coverslip. The bladders imaged with a Nikon E600 upright fluorescence microscope with a SPOT RT color camera. The images in each fluorescence channel were acquired under saturation as 12-bit gray TIFF files, and H&E images were acquired as RGB images. Each low-magnification image covering the entire bladder area was analyzed with ImageJ software. The background was subtracted, and the integrated gray density per image was calculated. The intensities were plotted as individual values using Prism software.
Referring now to FIGS. 6A and 6B, the effect of mechanical injury on accumulation of peptides in the bladder is illustrated. Mice were treated by washing the bladder and inducing injury to the mucosal surface of the bladder; the peptide was then injected into the bladder and incubated 15 minutes; the bladder was then washed 5 times. […] The arrows in FIGS. 6A and 6B indicate the apical region of the bladder.
An investigation of the mechanisms of injury-induced accumulation of CGKRK (SEQ ID NO:1) was conducted. CGKRK (SEQ ID NO:1) was mixed with EDTA-treated blood and administered intravesically. […] Mice were pretreated with the anti-inflammatory agent dexamethasone prior to injury.

collagen type I, sequence (P02452 162-1218 limits assumed): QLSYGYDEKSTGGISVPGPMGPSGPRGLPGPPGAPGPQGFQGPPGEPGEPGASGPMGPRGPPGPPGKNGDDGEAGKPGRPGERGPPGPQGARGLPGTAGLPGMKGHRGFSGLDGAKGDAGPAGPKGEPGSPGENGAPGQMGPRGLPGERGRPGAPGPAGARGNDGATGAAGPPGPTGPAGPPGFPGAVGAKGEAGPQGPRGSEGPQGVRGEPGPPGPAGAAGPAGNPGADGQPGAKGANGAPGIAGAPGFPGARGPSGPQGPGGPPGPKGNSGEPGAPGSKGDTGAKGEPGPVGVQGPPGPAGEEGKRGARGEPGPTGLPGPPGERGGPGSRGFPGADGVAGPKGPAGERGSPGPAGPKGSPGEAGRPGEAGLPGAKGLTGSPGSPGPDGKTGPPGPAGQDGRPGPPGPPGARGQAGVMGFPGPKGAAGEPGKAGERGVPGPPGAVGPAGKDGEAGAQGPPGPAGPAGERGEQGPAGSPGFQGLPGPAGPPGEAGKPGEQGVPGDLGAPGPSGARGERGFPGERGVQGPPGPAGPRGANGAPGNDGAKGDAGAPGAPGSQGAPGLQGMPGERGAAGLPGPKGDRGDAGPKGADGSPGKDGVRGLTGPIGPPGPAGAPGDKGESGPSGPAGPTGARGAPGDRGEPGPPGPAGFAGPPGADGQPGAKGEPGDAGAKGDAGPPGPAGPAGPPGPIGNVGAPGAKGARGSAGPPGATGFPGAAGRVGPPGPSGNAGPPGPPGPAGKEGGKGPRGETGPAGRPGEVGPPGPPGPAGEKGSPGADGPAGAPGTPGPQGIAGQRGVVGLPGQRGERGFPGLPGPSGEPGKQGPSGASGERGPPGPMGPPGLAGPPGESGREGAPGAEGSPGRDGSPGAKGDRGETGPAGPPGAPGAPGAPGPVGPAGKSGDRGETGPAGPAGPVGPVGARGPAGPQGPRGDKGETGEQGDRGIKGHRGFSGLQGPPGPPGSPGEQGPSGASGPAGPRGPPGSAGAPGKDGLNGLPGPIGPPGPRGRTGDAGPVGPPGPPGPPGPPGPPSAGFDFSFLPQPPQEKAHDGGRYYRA
collagen type I, sequence (P08123 80-1119 limits assumed): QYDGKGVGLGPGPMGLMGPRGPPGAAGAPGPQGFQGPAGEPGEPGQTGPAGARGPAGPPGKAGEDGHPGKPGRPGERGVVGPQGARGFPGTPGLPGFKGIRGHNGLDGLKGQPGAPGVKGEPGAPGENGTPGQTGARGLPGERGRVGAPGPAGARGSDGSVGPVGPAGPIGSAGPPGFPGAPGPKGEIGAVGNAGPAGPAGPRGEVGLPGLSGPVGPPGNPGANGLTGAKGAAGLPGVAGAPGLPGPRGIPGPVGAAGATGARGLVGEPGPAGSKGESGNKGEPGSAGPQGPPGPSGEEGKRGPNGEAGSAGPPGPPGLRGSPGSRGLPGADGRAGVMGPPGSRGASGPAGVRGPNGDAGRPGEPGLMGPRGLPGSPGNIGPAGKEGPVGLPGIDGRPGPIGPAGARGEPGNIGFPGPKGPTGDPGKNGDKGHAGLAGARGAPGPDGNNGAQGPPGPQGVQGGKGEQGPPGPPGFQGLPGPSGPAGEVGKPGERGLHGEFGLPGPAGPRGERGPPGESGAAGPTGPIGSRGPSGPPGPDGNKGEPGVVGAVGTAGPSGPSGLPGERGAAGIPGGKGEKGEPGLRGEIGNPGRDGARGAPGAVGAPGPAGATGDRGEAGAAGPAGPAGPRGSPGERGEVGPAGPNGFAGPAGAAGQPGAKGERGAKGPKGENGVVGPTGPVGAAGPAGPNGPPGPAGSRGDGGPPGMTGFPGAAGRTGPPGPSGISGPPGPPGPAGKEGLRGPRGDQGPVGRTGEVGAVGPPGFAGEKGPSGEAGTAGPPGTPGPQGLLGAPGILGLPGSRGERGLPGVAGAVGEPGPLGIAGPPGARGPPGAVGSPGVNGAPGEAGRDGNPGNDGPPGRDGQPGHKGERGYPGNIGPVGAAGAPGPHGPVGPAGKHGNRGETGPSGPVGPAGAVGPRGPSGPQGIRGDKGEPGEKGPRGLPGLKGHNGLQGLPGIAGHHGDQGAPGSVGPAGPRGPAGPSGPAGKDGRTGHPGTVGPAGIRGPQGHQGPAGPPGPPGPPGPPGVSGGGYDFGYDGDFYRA

## CGKRK (also: fluorescent label) [cell-penetrating pentapeptide, fluorescently labelled in the tests]
[1]
  Cellular uptake, accumulation in the cytoplasm (confocal images): significant accumulation
[1]; FIG. 5A, versus KAREC
  Peptide uptake quantified by fluorescence spectroscopy: significantly more accumulation
[2]
  Kinetics of binding to heparin (curve fit): linear kinetics for other binding
[2]; versus KAREC
  Binding to heparin: more efficient binding to both heparin and collagen type I
Collagen type I
  Kinetics of binding to collagen (curve fit): saturation kinetics
Collagen type I; versus KAREC
  Binding to collagen type I: more efficient binding to both heparin and collagen type I
Bladder urothelium; 2× and 20× magnification
  Accumulation after chemical disruption of the urothelium barrier with ethanol: widespread accumulation
Bladder urothelium; absence of focal injury
  Binding in the bladder, in situ images: no binding
Bladder urothelium; after mechanical injury
  Binding in the bladder, in situ images: efficient binding after injury
Bladder urothelium; injured bladder, FIG. 7
  Histological analysis of binding, entire bladder: widespread binding
Bladder urothelium; injured bladder, 20× magnification, FIG. 7
  Histological analysis of binding, tissue layers: accumulation of the peptide in the urothelium (U) and some penetration into the muscle layer (ML)
Bladder urothelium; mice pretreated with dexamethasone prior to injury
  Injury-induced binding after dexamethasone pretreatment: did not block injury-induced binding
Bladder urothelium; no injury, intravesical
  Binding when mixed with EDTA-treated blood: Blood did not induce binding in the absence of injury

## KAREC [comparison peptide tested beside CGKRK, reference compound]
[2]
  Kinetics of binding to heparin (curve fit): linear kinetics for other binding
Collagen type I
  Kinetics of binding to collagen (curve fit): linear kinetics for other binding
Bladder urothelium; after mechanical injury
  Binding in the bladder, in situ images: limited binding at the injury site
Bladder urothelium; injured bladder, FIG. 7
  Histological analysis of binding, entire bladder: less efficient and less widespread accumulation

Reference: patent publication US11642319B2, “Targeted nanogels for urinary bladder therapies” (THE REGENTS OF THE UNIVERSITY OF COLORADO, priority 2017, dated 2023)
